Results from ChEMBL document CHEMBL4627255, “Efficient synthesis of tert-butyl 3-cyano-3-cyclopropyl-2-oxopyrrolidine-4-carboxylates: Highly functionalized 2-pyrrolidinone enabling access to novel macrocyclic Tyk2 inhibitors” (Bioorg Med Chem Lett, 2020).

Legend:
[1] = molecular target: T1, Non-receptor tyrosine-protein kinase TYK2 (Homo sapiens, UniProt P29597); assay: Inhibition of TYK2 in human Jurkat cells by luciferase reporter gene assay; format: cell-based
Homo sapiens [2] = species on record: Homo sapiens; assay: Selectivity index, ratio of IC50 for JAK3 (unknown origin) to IC50 for TYK2 (unknown origin)
[3] = molecular target: T1, Non-receptor tyrosine-protein kinase TYK2; assay: Inhibition of TYK2 (unknown origin)
[4] = molecular target: Tyrosine-protein kinase JAK1 (Homo sapiens, UniProt P23458); assay: Inhibition of JAK1 (unknown origin)
Chain of Tyrosine-protein kinase JAK1 (P23458 whole entry): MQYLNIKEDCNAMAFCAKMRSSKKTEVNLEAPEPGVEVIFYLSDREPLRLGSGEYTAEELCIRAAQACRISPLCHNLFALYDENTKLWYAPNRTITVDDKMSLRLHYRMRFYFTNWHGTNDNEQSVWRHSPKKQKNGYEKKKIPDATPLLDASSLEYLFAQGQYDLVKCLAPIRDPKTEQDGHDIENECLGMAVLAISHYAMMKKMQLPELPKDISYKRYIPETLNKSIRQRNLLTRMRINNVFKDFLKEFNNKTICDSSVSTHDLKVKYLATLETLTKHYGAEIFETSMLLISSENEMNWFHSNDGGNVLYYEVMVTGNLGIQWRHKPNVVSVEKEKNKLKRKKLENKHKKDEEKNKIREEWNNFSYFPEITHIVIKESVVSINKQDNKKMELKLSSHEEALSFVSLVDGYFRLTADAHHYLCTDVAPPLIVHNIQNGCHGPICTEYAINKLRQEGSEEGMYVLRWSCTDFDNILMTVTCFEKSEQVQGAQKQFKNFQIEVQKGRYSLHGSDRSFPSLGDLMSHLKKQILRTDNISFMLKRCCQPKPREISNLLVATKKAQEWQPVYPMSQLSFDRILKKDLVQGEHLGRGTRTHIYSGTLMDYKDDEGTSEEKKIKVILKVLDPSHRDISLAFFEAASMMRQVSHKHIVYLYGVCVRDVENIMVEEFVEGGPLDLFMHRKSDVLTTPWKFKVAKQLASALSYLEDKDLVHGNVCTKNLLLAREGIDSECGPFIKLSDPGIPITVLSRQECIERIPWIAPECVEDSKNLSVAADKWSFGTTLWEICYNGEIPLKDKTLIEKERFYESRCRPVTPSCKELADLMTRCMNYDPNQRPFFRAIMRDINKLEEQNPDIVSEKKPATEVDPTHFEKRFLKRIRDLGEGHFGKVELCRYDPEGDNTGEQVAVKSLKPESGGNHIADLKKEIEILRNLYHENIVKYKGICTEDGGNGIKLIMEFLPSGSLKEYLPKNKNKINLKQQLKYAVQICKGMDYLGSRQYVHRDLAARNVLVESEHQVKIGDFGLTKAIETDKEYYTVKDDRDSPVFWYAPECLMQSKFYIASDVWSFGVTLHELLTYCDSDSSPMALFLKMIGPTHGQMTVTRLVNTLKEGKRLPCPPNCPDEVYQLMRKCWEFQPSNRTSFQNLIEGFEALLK

Homo sapiens [5] = species on record: Homo sapiens; assay: Selectivity index, ratio of IC50 for JAK2 (unknown origin) to IC50 for TYK2 (unknown origin)
[6] = molecular target: T2, Tyrosine-protein kinase JAK3 (Homo sapiens, UniProt P52333); assay: Inhibition of JAK3 (unknown origin)
T2 sequence (P52333 whole entry): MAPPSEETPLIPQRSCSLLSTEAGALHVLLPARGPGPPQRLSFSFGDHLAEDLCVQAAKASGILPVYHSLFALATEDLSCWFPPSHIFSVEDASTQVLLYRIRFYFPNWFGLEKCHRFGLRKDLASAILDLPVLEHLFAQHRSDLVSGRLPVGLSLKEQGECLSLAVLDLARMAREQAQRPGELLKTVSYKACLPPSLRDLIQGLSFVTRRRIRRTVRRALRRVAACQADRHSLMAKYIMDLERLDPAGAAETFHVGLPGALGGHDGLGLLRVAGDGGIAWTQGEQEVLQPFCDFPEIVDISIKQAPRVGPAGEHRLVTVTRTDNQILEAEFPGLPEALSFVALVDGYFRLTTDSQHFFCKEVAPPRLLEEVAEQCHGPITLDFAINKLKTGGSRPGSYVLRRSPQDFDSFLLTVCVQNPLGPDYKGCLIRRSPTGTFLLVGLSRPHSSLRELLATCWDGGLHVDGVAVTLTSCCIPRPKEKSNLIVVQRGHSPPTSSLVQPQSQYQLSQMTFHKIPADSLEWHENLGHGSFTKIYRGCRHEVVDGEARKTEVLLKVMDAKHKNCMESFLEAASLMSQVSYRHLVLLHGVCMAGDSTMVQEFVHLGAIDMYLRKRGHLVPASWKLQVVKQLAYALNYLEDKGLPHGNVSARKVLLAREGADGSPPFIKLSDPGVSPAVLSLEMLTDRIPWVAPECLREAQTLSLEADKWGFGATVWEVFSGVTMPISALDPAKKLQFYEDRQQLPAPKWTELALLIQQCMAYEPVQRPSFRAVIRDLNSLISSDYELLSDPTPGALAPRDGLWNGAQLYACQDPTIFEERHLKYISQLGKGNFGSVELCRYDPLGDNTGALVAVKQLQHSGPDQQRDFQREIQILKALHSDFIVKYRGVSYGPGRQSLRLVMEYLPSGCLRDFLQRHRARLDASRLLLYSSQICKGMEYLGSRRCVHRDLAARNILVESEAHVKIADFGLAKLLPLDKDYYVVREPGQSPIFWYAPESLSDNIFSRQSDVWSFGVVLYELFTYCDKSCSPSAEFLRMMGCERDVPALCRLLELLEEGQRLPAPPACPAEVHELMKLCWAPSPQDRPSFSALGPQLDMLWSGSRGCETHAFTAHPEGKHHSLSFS

Homo sapiens [7] = species on record: Homo sapiens; assay: Selectivity index, ratio of IC50 for JAK1 (unknown origin) to IC50 for TYK2 (unknown origin)
[8] = molecular target: Tyrosine-protein kinase JAK2 (Homo sapiens, UniProt O60674); assay: Inhibition of JAK2 (unknown origin)
Chain of Tyrosine-protein kinase JAK2 (O60674 whole entry): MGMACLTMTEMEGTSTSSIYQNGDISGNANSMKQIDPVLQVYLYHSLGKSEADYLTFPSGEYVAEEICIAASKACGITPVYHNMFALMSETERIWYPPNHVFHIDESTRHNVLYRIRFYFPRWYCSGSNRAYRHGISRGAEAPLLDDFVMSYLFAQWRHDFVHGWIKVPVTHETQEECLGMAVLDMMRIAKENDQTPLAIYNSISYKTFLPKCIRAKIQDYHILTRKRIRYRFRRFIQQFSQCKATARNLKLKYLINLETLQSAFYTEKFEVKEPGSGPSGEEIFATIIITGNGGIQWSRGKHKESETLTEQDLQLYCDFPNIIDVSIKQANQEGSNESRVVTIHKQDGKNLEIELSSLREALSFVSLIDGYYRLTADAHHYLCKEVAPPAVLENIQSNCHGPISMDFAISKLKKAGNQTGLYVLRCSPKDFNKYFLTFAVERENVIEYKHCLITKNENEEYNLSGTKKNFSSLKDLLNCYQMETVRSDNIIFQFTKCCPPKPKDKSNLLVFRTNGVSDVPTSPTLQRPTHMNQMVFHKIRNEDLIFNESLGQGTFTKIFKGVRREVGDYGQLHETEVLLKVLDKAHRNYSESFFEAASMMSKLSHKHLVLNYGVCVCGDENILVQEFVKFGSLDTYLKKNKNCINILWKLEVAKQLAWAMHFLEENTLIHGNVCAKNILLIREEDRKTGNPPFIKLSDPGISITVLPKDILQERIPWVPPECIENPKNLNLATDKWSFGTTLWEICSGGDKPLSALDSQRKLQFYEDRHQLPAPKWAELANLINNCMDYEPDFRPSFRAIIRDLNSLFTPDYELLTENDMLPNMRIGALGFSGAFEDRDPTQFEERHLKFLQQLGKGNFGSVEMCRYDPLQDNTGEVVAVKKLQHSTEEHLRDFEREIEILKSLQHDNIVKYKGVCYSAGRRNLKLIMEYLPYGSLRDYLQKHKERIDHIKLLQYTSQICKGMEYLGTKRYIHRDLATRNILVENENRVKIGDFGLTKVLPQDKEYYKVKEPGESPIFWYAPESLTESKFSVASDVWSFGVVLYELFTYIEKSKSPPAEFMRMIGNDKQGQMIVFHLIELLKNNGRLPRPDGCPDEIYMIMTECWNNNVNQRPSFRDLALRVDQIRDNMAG

T1 sequence (P29597 whole entry): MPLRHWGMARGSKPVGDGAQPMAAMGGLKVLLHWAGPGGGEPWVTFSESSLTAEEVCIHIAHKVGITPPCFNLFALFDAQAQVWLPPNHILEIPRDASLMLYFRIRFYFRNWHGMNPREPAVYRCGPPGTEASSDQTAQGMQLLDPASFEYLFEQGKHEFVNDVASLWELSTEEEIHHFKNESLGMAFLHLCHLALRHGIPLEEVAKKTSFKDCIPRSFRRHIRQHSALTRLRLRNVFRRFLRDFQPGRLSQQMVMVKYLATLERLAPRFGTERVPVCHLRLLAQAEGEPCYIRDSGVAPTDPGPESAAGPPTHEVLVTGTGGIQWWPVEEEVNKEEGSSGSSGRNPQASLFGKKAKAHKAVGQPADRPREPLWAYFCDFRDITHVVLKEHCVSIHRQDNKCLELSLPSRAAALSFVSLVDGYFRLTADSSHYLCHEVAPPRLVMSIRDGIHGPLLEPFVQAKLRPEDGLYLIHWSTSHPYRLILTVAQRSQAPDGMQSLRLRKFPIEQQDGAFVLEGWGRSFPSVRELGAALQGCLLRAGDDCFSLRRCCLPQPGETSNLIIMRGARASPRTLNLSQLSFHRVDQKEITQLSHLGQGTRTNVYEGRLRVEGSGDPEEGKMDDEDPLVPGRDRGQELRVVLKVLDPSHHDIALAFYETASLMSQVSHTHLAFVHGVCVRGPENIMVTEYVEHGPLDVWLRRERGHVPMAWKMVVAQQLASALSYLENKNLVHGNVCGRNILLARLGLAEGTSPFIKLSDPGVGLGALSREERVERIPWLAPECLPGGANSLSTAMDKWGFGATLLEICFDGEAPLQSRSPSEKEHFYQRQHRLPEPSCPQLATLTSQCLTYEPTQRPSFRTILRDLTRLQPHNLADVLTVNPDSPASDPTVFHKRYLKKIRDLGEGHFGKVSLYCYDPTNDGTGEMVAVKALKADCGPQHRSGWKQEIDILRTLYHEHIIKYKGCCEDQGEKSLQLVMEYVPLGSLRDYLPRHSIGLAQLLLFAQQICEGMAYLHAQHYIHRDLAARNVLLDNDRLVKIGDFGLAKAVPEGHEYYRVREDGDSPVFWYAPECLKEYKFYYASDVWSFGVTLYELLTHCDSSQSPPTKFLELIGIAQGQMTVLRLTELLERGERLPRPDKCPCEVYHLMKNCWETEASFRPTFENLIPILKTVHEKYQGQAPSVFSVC

IC50 [1] | Ratio IC50 (Homo sapiens [2]) | IC50 [3] | IC50 [4] | Ratio IC50 (Homo sapiens [5]) | IC50 [6] | Ratio IC50 (Homo sapiens [7]) | IC50 [8] | Structure (SMILES)
0.21 µM | 5.7 | 0.023 µM | 0.91 µM | 7.8 | 0.13 µM | 40 | 0.18 µM | N#C[C@]1(C2CC2)C(=O)N2C[C@H]1COCC(=O)NCCc1cccc(n1)Nc1cc2ccn1
– | – | 0.0011 µM | – | – | – | – | – | CN(C)C(=O)c1ccc(Nc2cc(N3CC[C@@](C#N)(C4CC4)C3=O)ccn2)nc1
1.3 µM | 15 | 0.13 µM | 3 µM | 7.7 | 1.9 µM | 23 | 1 µM | N#C[C@]1(C2CC2)C(=O)N2C[C@H]1COCC(=O)NCc1cccc(n1)Nc1cc2ccn1
0.18 µM | 7.8 | 0.0055 µM | 0.13 µM | 18 | 0.043 µM | 24 | 0.1 µM | N#C[C@]1(C2CC2)C(=O)N2C[C@H]1COCC(=O)NCCCc1cccc(n1)Nc1cc2ccn1
0.21 µM | 82 | 0.0049 µM | 0.71 µM | 27 | 0.4 µM | 140 | 0.13 µM | N#C[C@]1(C2CC2)C(=O)N2C[C@H]1COCCCCOCc1cccc(n1)Nc1cc2ccn1
0.26 µM | 52 | 0.0052 µM | 0.58 µM | 25 | 0.27 µM | 110 | 0.13 µM | N#C[C@]1(C2CC2)C(=O)N2C[C@H]1COC/C=C\COCc1cccc(n1)Nc1cc2ccn1
0.44 µM | 15 | 0.012 µM | 0.36 µM | 12 | 0.18 µM | 30 | 0.14 µM | N#C[C@]1(C2CC2)C(=O)N2C[C@H]1COC/C=C/COCc1cccc(n1)Nc1cc2ccn1
